# In patent US11344523B2, “Composition for use in treating rotavirus infection” (Devenish Nutrition Limited, priority 2016, dated 2022):
# Tests used:
# Porcine Rotavirus [1] = experiment: Virucidal effect on porcine rotavirus in primary pig kidney cells; type: cell-based; conditions: total carboxylic acid concentration of 200 mM; for Result Replicate 2: controls PBS −5, ETHANOL −4; for Result Replicate 3: controls PBS −5, ETHANOL −5
# Method: (§1) Carboxylic acids were obtained from David Garnett of Pathway Intermediates Ltd or from Sigma-Aldrich Co. LLC; and compositions were prepared in a Class II cabinet at room temperature in Hank's Balanced Salt Solution (Thermo Fisher Scientific Inc.) or ethanol by vortexing strongly to emulsify at a stock concentration of 1M. Stock concentrations were diluted to working concentrations e.g. of […] by serial dilution using Minimum Essential Medium (MEM) cell culture medium (Thermo Fisher Scientific Inc.) containing 2 mM L-Glutamine (Gibco Life Technologies Ltd.), and 100 μg/500 ml gentamycin (Lonza Group Ltd.).
# A primary pig kidney (PPK) cell line was sourced from a kidney of a sacrificed piglet from the Agri-Food and Biosciences Institute (AFBI Hillsborough, UK). The kidney tissue was trypsinised to create a PPK cell line, which was maintained in Minimum Essential Medium (MEM) cell culture medium (Thermo Fisher Scientific Inc.) containing 2 mM L-Glutamine (Gibco Life Technologies Ltd.), 10% foetal calf serum (PAN-Biotech GmbH), and 100 μg/500 ml gentamycin (Lonza Group Ltd.).
# (§2) In general, cells were seeded as at a density of 0.313e4-5.000e4 cells per 1 ml of cell suspension in growth medium, dispensed in to a SPL 24-Well Cell Culture Plate (SPL Life Sciences Co., Ltd.) in replicates of 3, each containing Academy Circular Cover Slips (Academy Science) and incubated overnight at 37° C. at 5% CO2. The growth medium was removed and replaced with 1 ml of Minimum Essential Medium (MEM) cell culture medium (Thermo Fisher Scientific Inc.) containing 2 mM L-Glutamine (Gibco Life Technologies Ltd.), and 100 μg/500 ml gentamycin (Lonza Group Ltd.) for treatment.
# (§3) Porcine rotavirus was PROSYSTEM® ROTA PORCINE ROTAVIRUS VACCINE (Merck Animal Health).
# Prior to treatment, the cells and coverslips were washed three times with Minimum Essential Medium (MEM) cell culture medium (Thermo Fisher Scientific Inc.) containing 2 mM L-Glutamine (Gibco Life Technologies Ltd.), and 100 μg/500 ml gentamycin (Lonza Group Ltd.). 100 μl of the virus at a titre of 10^9 TCID50/100 μl by the Reed-Muench method, and 100 μl of the treatment samples, were incubated for 30 mins at 37° C. at 5% CO2 The reaction was stopped by adding 800 μl of Minimum Essential Medium (MEM) cell culture medium (Thermo Fisher Scientific Inc.) containing 2 mM L-Glutamine (Gibco Life Technologies Ltd.), and 100 μg/500 ml gentamycin (Lonza Group Ltd.). Each treatment/virus was titrated out, initially 100 μl of each treatment was added to 900 μls of Minimum Essential Medium (MEM) cell culture medium (Thermo Fisher Scientific Inc.) containing 2 mM L-Glutamine (Gibco Life Technologies Ltd.), and 100 μg/500 ml gentamycin (Lonza Group Ltd.) to prepare a 10^−1 dilution. The 10^−1 dilution was then diluted in serial dilutions down to 10^−6 in the same medium 100 μl of media was then added to each appropriate well in replicates of 3 and incubated for 36 hours at 37° C. at 5% CO2 Ethanol or PBS were used as control treatments. Untreated cells were used as negative controls.
# After incubation, coverslips were harvested. Each slip was harvested by lifting out of the medium with forceps then rinsing and fixing by dipping sequentially into glass universal bottles of PBS, acetone, and lastly acetone. The slip was then placed cells side up in a glass Petri dish of acetone in a Class II cabinet at room temperature for 10 minutes. […]
# [2] = system: infectious bovine rhinotracheitis virus (IBRV); experiment: Virucidal effect on IBRV, virus/treatment titration read by immunofluorescence; type: cell-based, Infectious bovine rhinotracheitis virus (Bovine Herpes 1); conditions: 100 mM
# Method: as §1
# MDBK cells were obtained from ECACC and were maintained in Minimum Essential Medium (MEM) cell culture medium (Thermo Fisher Scientific Inc.) containing 2 mM L-Glutamine (Gibco Life Technologies Ltd.), 10% foetal calf serum (PAN-Biotech GmbH), 100 μg/500 ml gentamycin (Lonza Group Ltd.), and 1% essential non essential amino acids (Sigma-Aldrich Co. LLC.).
# (§4) In general, cells were seeded as at a density of 0.313e4-5.000e4 cells per 1 ml of cell suspension in growth medium, dispensed in to a SPL 24-Well Cell Culture Plate (SPL Life Sciences Co., Ltd.) in replicates of 3, each containing Academy Circular Cover Slips (Academy Science) and incubated overnight at 37° C. at 5% CO2. […]
# [3] = system: Porcine Respiratory and Reproductive Syndrome Virus (PRRSV); experiment: Virucidal effect on PRRSV, virus/treatment titration read by immunofluorescence; type: cell-based; conditions: 200 mM
# Method: as §1
# MARC145 cells were obtained from the Centre of Cell Cultures, Istituto Zooprofilattico Sperimentale Brescia, Italy and were maintained in Minimum Essential Medium (MEM) cell culture medium (Thermo Fisher Scientific Inc.) containing 2 mM L-Glutamine (Gibco Life Technologies Ltd.), 10% foetal calf serum (PAN-Biotech GmbH), and 100 μg/500 ml gentamycin (Lonza Group Ltd.).
# as §4
# [4] = system: porcine circovirus (PCV2); experiment: Virucidal effect on PCV2 in PK15A cells; type: cell-based, Porcine circovirus type 2; conditions: at either 100 or 200 mM
# Porcine Rotavirus [5] = experiment: Virucidal effect on porcine rotavirus in MA104 cells; type: cell-based; conditions: for Titre: incubation 30 mins, DMSO ✓, control titres ETOH −4, PBS −4
# Method: as §1
# MA104 cells were obtained from ECACC and were maintained in Minimum Essential Medium (MEM) cell culture medium (Thermo Fisher Scientific Inc.) containing 2 mM L-Glutamine (Gibco Life Technologies Ltd.), 10% foetal calf serum (PAN-Biotech GmbH), and 100 μg/500 ml gentamycin (Lonza Group Ltd.).
# as §2, §3
# Prior to treatment, the cells and coverslips were washed three times with Minimum Essential Medium (MEM) cell culture medium (Thermo Fisher Scientific Inc.) containing 2 mM L-Glutamine (Gibco Life Technologies Ltd.), and 100 μg/500 ml gentamycin (Lonza Group Ltd.). […]
SMILES,Result Replicate 2 (Porcine Rotavirus [1]),Result Replicate 3 (Porcine Rotavirus [1]),reduction in titre [2] [log10],reduction in titre [3] [log10],susceptibility of virus to treatment [4],reduction in titre (Porcine Rotavirus [5]; 200 mM) [log 10],"Titre (Porcine Rotavirus [5]; Expt 1, FA conc 100 mM)","Titre (Porcine Rotavirus [5]; Expt 2, FA conc 200 mM)"
"CCCCCCCCCC(=O)O [Decanoic Acid/Capric C10 (1M), Decanoic Acid]",−1,−ve,,,,,,
"CCCC(=O)O [Butyric Acid C4 (1M), Butyric Acid]",−ve,−ve,,,,,,
"CCCCCCCC(=O)O [Octanonic Acid/Caprylic C8 (1M), octanoic acid]",−2,−1,,,,,,
"CCCCCCCCCCCC(=O)O [Dodecanoic acid/Lauric C12 (1M), Dodecanoic acid]",−ve,−1,,,,,,
"CCCC(=O)[O-].[Na+] [Treatment A, Sodium butyrate]",,,4,3.5,not susceptible,2,−4,−2
